# Measured values as given in patent US8394848B2, “Compounds that modulate intracellular calcium” (Calcimedica, Inc., priority 2008, dated 2013).
# Test system: JR251 or RBL cells
# Assay: Store-operated calcium entry, either JR251 or RBL cells, or both
# Format: cell-based
# Method in brief: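 Orai1/STIM1 stable cells: fluo-4-AM loaded, compound 30 min at RT in Ca2+-free HBSS, then CaCl2 added; IC50 from Peak-Basal FLIPR fluorescence. RBL-2H3 cells: compound 5 min, then thapsigargin (5.5× stock, 5.5 uM) 25 min, then calcium added; IC50 from Upslope (signal 7 s after calcium minus baseline).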
row,SMILES,IC50 [µM]
1,Cc1ccsc1C(=O)Nc1scc(-c2ccccc2Br)c1C(=O)O [4-(2-bromophenyl)-2-(3-methylthiophene-2-carboxamido)thiophene-3-carboxylic acid],< 10
2,Cc1ccc(-c2csc(NC(=O)c3nc4ccccc4o3)c2C(=O)O)c(F)c1 [2-(benzo[d]oxazole-2-carboxamido)-4-(2-fluoro-4-methylphenyl)thiophene-3-carboxylic acid],< 10
3,O=C(Nc1scc(-c2ccc(Cl)cc2)c1C(=O)O)c1ccc2scnc2c1 [2-(benzo[d]thiazole-5-carboxamido)-4-(4-chlorophenyl)thiophene-3-carboxylic acid],< 10
4,"O=C(Nc1scc(-c2ccc(Br)c(F)c2F)c1C(=O)O)c1nc2ccccc2o1 [2-(benzo[d]oxazole-2-carboxamido)-4-(4-bromo-2,3-difluorophenyl)thiophene-3-carboxylic acid]",< 10
5,O=C(Nc1scc(-c2ccc3occc3c2)c1C(=O)O)c1cc2ccccc2o1 [2-(benzofuran-2-carboxamido)-4-(benzofuran-5-yl)thiophene-3-carboxylic acid],< 10
6,"Cc1nnsc1C(=O)Nc1scc(-c2ccc(Br)cc2)c1C(=O)O [4-(4-bromophenyl)-2-(4-methyl-1,2,3-thiadiazole-5-carboxamido)thiophene-3-carboxylic acid]",< 10
7,"Cc1ccc(-c2csc(NC(=O)c3nc4cccc(F)c4o3)c2C(=O)O)c(F)c1F [4-(2,3-difluoro-4-methylphenyl)-2-(7-fluorobenzo[d]oxazole-2-carboxamido)thiophene-3-carboxylic acid]",< 10
8,Cc1ccc(-c2csc(NC(=O)c3nc4ccccc4o3)c2C(=O)O)c(Cl)c1 [2-(benzo[d]oxazole-2-carboxamido)-4-(2-chloro-4-methylphenyl)thiophene-3-carboxylic acid],< 10
9,"Cc1ccc(-c2csc(NC(=O)c3cc4c(Cl)cc(Cl)cc4[nH]3)c2C(=O)O)cc1 [2-(4,6-dichloro-1H-indole-2-carboxamido)-4-p-tolylthiophene-3-carboxylic acid]",< 10
10,O=C(Nc1scc(-c2ccc(Cl)cc2)c1C(=O)O)OCc1ccccc1 [2-(benzyloxycarbonylamino)-4-(4-chlorophenyl)thiophene-3-carboxylic acid],< 10
11,"O=C(CCc1ccccc1)Nc1scc(-c2ccc(Cl)cc2Cl)c1C(=O)O [4-(2,4-dichlorophenyl)-2-(3-phenylpropanamido)thiophene-3-carboxylic acid]",< 10
12,Cc1ccc(-c2csc(NC(=O)c3cc(-c4ccccc4)oc3C)c2C(=O)O)cc1 [2-(2-methyl-5-phenylfuran-3-carboxamido)-4-p-tolylthiophene-3-carboxylic acid],< 10
13,Cc1ccc(-c2csc(NC(=O)c3scc(S(=O)(=O)c4ccc(Cl)cc4)c3C)c2C(=O)O)cc1 [2-(4-(4-chlorophenylsulfonyl)-3-methylthiophene-2-carboxamido)-4-p-tolylthiophene-3-carboxylic acid],< 10
14,Cn1ncc(C(=O)Nc2scc(-c3ccc(Br)cc3)c2C(=O)O)c1Cl [4-(4-bromophenyl)-2-(5-chloro-1-methyl-1H-pyrazole-4-carboxamido)thiophene-3-carboxylic acid],< 10
15,O=C(Nc1scc(-c2ccc(Cl)c(F)c2)c1C(=O)O)c1nc2ccccc2s1 [2-(benzo[d]thiazole-2-carboxamido)-4-(4-chloro-3-fluorophenyl)thiophene-3-carboxylic acid],< 10
16,O=C(Nc1scc(-c2ccc(C(F)(F)F)cc2F)c1C(=O)O)c1nc2ccccc2o1 [2-(benzo[d]oxazole-2-carboxamido)-4-(2-fluoro-4-(trifluoromethyl)phenyl)thiophene-3-carboxylic acid],< 10
17,O=C(Cc1cc2ccccc2o1)Nc1scc(-c2ccc(Br)cc2)c1C(=O)O [2-(2-(benzofuran-2-yl)acetamido)-4-(4-bromophenyl)thiophene-3-carboxylic acid],< 10
18,"O=C(Nc1scc(-c2ccc(Cl)c(F)c2F)c1C(=O)O)c1cc2ccccc2o1 [2-(benzofuran-2-carboxamido)-4-(4-chloro-2,3-difluorophenyl)thiophene-3-carboxylic acid]",< 10
19,O=C(CSc1ccccc1)Nc1scc(-c2ccccc2Br)c1C(=O)O [4-(2-bromophenyl)-2-(2-(phenylthio)acetamido)thiophene-3-carboxylic acid],< 10

# The next lines start with the values.
row,IC50 [µM],SMILES
1,< 10,O=C(Nc1scc(-c2ccc(Cl)cc2)c1C(=O)O)c1ccsc1 [4-(4-chlorophenyl)-2-(thiophene-3-carboxamido)thiophene-3-carboxylic acid]
2,< 10,O=C(O)c1c(-c2ccc(Cl)cc2)csc1NC(=O)N1Cc2ccccc2C1 [4-(4-chlorophenyl)-2-(isoindoline-2-carboxamido)thiophene-3-carboxylic acid]
3,< 10,O=C(Nc1scc(-c2ccc(Cl)cc2)c1C(=O)O)c1ncc(C(F)(F)F)cn1 [4-(4-chlorophenyl)-2-(5-(trifluoromethyl)pyrimidine-2-carboxamido)thiophene-3-carboxylic acid]
4,< 10,O=C(Nc1scc(-c2ccc(Cl)cc2)c1C(=O)O)c1nc2cccc(F)c2o1 [4-(4-chlorophenyl)-2-(7-fluorobenzo[d]oxazole-2-carboxamido)thiophene-3-carboxylic acid]
5,< 10,"O=C(O)c1c(-c2ccc(Cl)cc2)csc1NC(=O)C1Cc2ccc([N+](=O)[O-])cc2C1 (centres unmarked) [4-(4-chlorophenyl)-2-(5-nitro-2,3-dihydro-1H-indene-2-carboxamido)thiophene-3-carboxylic acid]"
6,< 10,Cc1cccc2nc(C(=O)Nc3scc(-c4ccc(Cl)cc4)c3C(=O)O)oc12 [4-(4-chlorophenyl)-2-(7-methylbenzo[d]oxazole-2-carboxamido)thiophene-3-carboxylic acid]
7,< 10,O=C(O)c1c(-c2ccc(Cl)cc2)csc1NC(=O)C(Cc1ccccc1)n1cnnn1 (centres unmarked) [4-(4-chlorophenyl)-2-(3-phenyl-2-(1H-tetrazol-1-yl)propanamido)thiophene-3-carboxylic acid]
8,< 10,"O=C(O)c1c(-c2ccc(Cl)cc2)csc1NC(=O)C1Cc2ccccc2C1 [4-(4-chlorophenyl)-2-(2,3-dihydro-1H-indene-2-carboxamido)thiophene-3-carboxylic acid]"
9,< 10,O=C(Nc1scc(-c2ccc(Cl)cc2)c1C(=O)O)c1ccc(-c2ccc(Cl)cc2)o1 [4-(4-chlorophenyl)-2-(5-(4-chlorophenyl)furan-2-carboxamido)thiophene-3-carboxylic acid]
10,< 10,"Cc1cccc(C)c1CCC(=O)Nc1scc(-c2ccc(Cl)cc2)c1C(=O)O [4-(4-chlorophenyl)-2-(3-(2,6-dimethylphenyl)propanamido)thiophene-3-carboxylic acid]"
11,< 10,"O=C(Nc1scc(-c2ccc(Cl)cc2)c1C(=O)O)c1ccc(Cl)nc1Cl [4-(4-chlorophenyl)-2-(2,6-dichloronicotinamido)thiophene-3-carboxylic acid]"
12,< 10,"O=C(Nc1scc(-c2ccc(Br)cc2)c1C(=O)O)c1cc2ccccn2n1 [4-(4-bromophenyl)-2-(pyrazolo[1,5-a]pyridine-2-carboxamido)thiophene-3-carboxylic acid]"
13,< 10,O=C(CCc1ccccc1)Nc1scc(-c2cc3cc(Cl)ccc3o2)c1C(=O)O [4-(5-chlorobenzofuran-2-yl)-2-(3-phenylpropanamido)thiophene-3-carboxylic acid]
14,< 10,O=C(Nc1scc(-c2ccc(Cl)cc2)c1C(=O)O)c1cnc2ccccc2n1 [4-(4-chlorophenyl)-2-(quinoxaline-2-carboxamido)thiophene-3-carboxylic acid]
15,< 10,"O=C(Nc1scc(-c2ccc(Br)cc2)c1C(=O)O)c1cn2ccccc2n1 [4-(4-bromophenyl)-2-(imidazo[1,2-a]pyridine-2-carboxamido)thiophene-3-carboxylic acid]"
16,< 10,O=C(Nc1scc(/C=C/c2ccc(F)cc2)c1C(=O)O)c1cc2ccccc2o1 [(E)-2-(benzofuran-2-carboxamido)-4-(4-fluorostyryl)thiophene-3-carboxylic acid]
17,< 10,O=C(Nc1scc(-c2ccc(Cl)cc2)c1C(=O)O)c1cnn(-c2ccccc2)c1C(F)(F)F [4-(4-chlorophenyl)-2-(1-phenyl-5-(trifluoromethyl)-1H-pyrazole-4-carboxamido)thiophene-3-carboxylic acid]
18,< 10,O=C(Nc1scc(-c2cc3cccc(-c4cn[nH]c4)c3o2)c1C(=O)O)c1cc2ccccc2o1 [4-(7-(1H-pyrazol-4-yl)benzofuran-2-yl)-2-(benzofuran-2-carboxamido)thiophene-3-carboxylic acid]
19,< 10,O=C(CCc1ccccc1)Nc1scc(-c2ccc(Cl)cc2)c1C(=O)O [4-(4-chlorophenyl)-2-(3-phenylpropanamido)thiophene-3-carboxylic acid]
20,< 10,CC(Cc1ccccc1)C(=O)Nc1scc(-c2ccc(Cl)cc2)c1C(=O)O (centres unmarked) [4-(4-chlorophenyl)-2-(2-methyl-3-phenylpropanamido)thiophene-3-carboxylic acid]
21,< 10,"O=C(Nc1scc(-c2ccc(Cl)cc2)c1C(=O)O)c1cc2sccc2[nH]1 [4-(4-chlorophenyl)-2-(4H-thieno[3,2-b]pyrrole-5-carboxamido)thiophene-3-carboxylic acid]"
22,< 10,O=C(NCCc1ccccc1)Nc1scc(-c2ccc(Cl)cc2)c1C(=O)O [4-(4-chlorophenyl)-2-(3-phenethylureido)thiophene-3-carboxylic acid]
23,< 10,O=C(Nc1scc(-c2ccc(Cl)cc2)c1C(=O)O)c1ccno1 [4-(4-chlorophenyl)-2-(isoxazole-5-carboxamido)thiophene-3-carboxylic acid]
24,< 10,"O=C(Nc1scc(-c2ccc(Cl)cc2)c1C(=O)O)c1cc2sccc2s1 [4-(4-chlorophenyl)-2-(thieno[3,2-b]thiophene-2-carboxamido)thiophene-3-carboxylic acid]"
25,< 10,Cc1cccc2oc(C(=O)Nc3scc(-c4ccc(Cl)cc4)c3C(=O)O)nc12 [4-(4-chlorophenyl)-2-(4-methylbenzo[d]oxazole-2-carboxamido)thiophene-3-carboxylic acid]
